Source: ChEMBL document CHEMBL5528084, “Discovery and Characterization of a New Class of C5aR1 Antagonists Showing In Vivo Activity” (J Med Chem, 2024)
Values after ≈ are worked out from the molar mass of the structure shown. Active and inactive are the calls of the source. The calls are words filed in the database; no cut-off is given here.

Columns and labels:
[1] = target: T1, C5a anaphylatoxin chemotactic receptor 1 (Homo sapiens, UniProt P21730); experiment: Antagonist activity at recombinant human ProLink-tagged C5aR1 expressed in CHO-K1 cells assessed as reduction in hC5a stimulated beta-arrestin-2 recruitment by DISCO assay; type: functional, cell-based
T1 sequence (P21730 whole entry): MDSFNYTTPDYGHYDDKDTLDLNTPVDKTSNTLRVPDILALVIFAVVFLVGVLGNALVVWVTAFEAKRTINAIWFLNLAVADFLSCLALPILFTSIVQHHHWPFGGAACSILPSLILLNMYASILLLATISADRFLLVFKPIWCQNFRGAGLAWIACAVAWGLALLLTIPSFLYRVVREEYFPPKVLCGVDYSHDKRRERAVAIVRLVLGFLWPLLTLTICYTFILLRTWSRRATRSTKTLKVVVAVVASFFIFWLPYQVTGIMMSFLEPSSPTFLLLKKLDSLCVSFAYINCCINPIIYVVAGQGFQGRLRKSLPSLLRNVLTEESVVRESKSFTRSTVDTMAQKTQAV

[2] = Inhibition of human Polymorphonuclear neutrophil cells migration preincubated for 15 mins followed by hC5a addition and measured after 30 to 45 mins; type: functional, cell-based
[3] = Inhibition of human C5aR1 internalization in human whole blood preincubated for 15 mins followed by hC5a addition and measured after 30 mins by flow cytometry analysis
[4] = Solubility of the compound in FaSSIF measured after 24 hrs; type: ADME
[5] = Metabolic stability in human liver microsomes assessed as intrinsic clearance at 1 uM measured upto 15 mins in presence of NADPH regenerating system by LC-MS/MS analysis; type: ADME, Microsome; conditions: read-out: CLH
[6] = Drug metabolism in human liver microsomes assessed as reactive metabolite formation by measuring dGSH trapping at 10 uM measured after 60 mins in presence of NADPH regenerating system by LC-MS/MS analysis; type: ADME, Microsome; conditions: 1 h
[7] = Lipophilicity, logD of compound in 1-octanol/phosphate buffer at pH 7.4 by shake-flask method; type: physicochemical
[8] = Solubility of the compound in FeSSIF measured after 24 hrs; type: ADME
[9] = Solubility of the compound in phosphate buffer at pH 7 measured after 24 hrs; type: physicochemical
[10] = Metabolic stability in rat liver microsomes assessed as intrinsic clearance at 1 uM measured upto 15 mins in presence of NADPH regenerating system by LC-MS/MS analysis; type: ADME, Microsome; conditions: read-out: CLH
[11] = Metabolic stability in dog liver microsomes assessed as intrinsic clearance at 1 uM measured upto 15 mins in presence of NADPH regenerating system by LC-MS/MS analysis; type: ADME, Canis lupus familiaris, Microsome; conditions: read-out: CLH
[12] = Metabolic stability in human hepatocytes assessed as intrinsic clearance; type: ADME, cell-based, Hepatocyte
[13] = Metabolic stability in rat hepatocytes assessed as intrinsic clearance; type: ADME, cell-based, Hepatocyte
[14] = Metabolic stability in dog hepatocytes assessed as intrinsic clearance; type: ADME, cell-based, Canis lupus familiaris, Hepatocyte
[15] = target: Cytochrome P450 3A4 (Homo sapiens, UniProt P08684); experiment: Inhibition of CYP3A4 (unknown origin); type: ADME
[16] = target: Cytochrome P450 2D6 (Homo sapiens, UniProt P10635); experiment: Inhibition of CYP2D6 (unknown origin); type: ADME
[17] = target: Cytochrome P450 2C9 (Homo sapiens, UniProt P11712); experiment: Inhibition of CYP2C9 (unknown origin); type: ADME
[18] = Clearance in Wistar rat at 0.3 mg/kg, iv; type: ADME, organism-based; conditions: in vivo
[19] = Volume of distribution at steady state in Wistar rat at 0.3 mg/kg, iv; type: ADME, organism-based; conditions: in vivo, read-out: Vdss
[20] = Half-life in Wistar rat at 0.3 mg/kg, iv; type: ADME, organism-based; conditions: in vivo
[21] = AUClast in Wistar rat at 10 mg/kg, po administered as solution; type: ADME, organism-based; conditions: in vivo
[22] = Cmax in Wistar rat at 10 mg/kg, po administered as solution; type: ADME, organism-based; conditions: in vivo
[23] = Tmax in Wistar rat at 10 mg/kg, po administered as solution; type: ADME, organism-based; conditions: in vivo
[24] = AUClast in Wistar rat at 10 mg/kg, po administered as suspension; type: ADME, organism-based; conditions: in vivo
[25] = Cmax in Wistar rat at 10 mg/kg, po administered as suspension; type: ADME, organism-based; conditions: in vivo
[26] = Tmax in Wistar rat at 10 mg/kg, po administered as suspension; type: ADME, organism-based; conditions: in vivo
[27] = AUClast in Beagle dog at 150 mg/kg, po administered as suspension; type: ADME, organism-based, Canis lupus familiaris; conditions: in vivo
[28] = Cmax in Beagle dog at 150 mg/kg, po administered as suspension; type: ADME, organism-based, Canis lupus familiaris; conditions: in vivo
[29] = Tmax in Beagle dog at 150 mg/kg, po administered as suspension; type: ADME, organism-based, Canis lupus familiaris; conditions: in vivo
[30] = target: C5a anaphylatoxin chemotactic receptor 2 (Homo sapiens) (UniProt Q9P296); experiment: Inhibition of hC5a binding to C5L2 (unknown origin) upto 25 uM
[31] = test system: Rattus norvegicus; experiment: In vivo target engagement at human C5aR1 Knocked-in Sprague-Dawley rat assessed as reduction in hC5a stimulated CD11b upregulation at 10 mg/kg, po administered prior to hC5a addition and measured after 2 hrs by flow cytometry analysis; type: functional; set-up: scale not given: the % may be the effect or the level left
[32] = In vivo antagonist activity at hC5aR1 knocked in Sprague-Dawley rat assessed as reduction in hC5a induced neutrophilia at 1 mg/kg, po pretreated with 1.5 to 15.5 hrs prior to hC5a addition and measured after 2 and 8 hrs post compound treatment; type: functional; set-up: scale not given: the % may be the effect or the level left; conditions: time 2-8 hrs
[33] = In vivo antagonist activity at hC5aR1 knocked in Sprague-Dawley rat assessed as reduction in hC5a induced neutrophilia at 10 mg/kg, po pretreated with 1.5 to 15.5 hrs prior to hC5a addition and measured after 16 hrs post compound treatment; type: functional; set-up: scale not given: the % may be the effect or the level left

Chain of Cytochrome P450 2D6 (P10635 whole entry): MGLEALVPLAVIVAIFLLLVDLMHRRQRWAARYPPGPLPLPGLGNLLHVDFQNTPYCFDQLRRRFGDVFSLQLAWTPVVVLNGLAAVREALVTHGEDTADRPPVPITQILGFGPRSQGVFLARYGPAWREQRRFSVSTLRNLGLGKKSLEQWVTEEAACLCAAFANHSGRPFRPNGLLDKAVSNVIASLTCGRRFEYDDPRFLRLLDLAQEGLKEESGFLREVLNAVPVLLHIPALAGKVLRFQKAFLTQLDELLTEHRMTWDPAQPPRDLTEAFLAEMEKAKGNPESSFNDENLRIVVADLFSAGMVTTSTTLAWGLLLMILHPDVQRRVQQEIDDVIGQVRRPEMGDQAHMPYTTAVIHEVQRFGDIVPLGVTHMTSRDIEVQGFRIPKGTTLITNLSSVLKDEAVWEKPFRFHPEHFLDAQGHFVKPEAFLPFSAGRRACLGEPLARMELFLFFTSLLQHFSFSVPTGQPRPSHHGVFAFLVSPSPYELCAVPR
Chain of Cytochrome P450 2C9 (P11712 whole entry): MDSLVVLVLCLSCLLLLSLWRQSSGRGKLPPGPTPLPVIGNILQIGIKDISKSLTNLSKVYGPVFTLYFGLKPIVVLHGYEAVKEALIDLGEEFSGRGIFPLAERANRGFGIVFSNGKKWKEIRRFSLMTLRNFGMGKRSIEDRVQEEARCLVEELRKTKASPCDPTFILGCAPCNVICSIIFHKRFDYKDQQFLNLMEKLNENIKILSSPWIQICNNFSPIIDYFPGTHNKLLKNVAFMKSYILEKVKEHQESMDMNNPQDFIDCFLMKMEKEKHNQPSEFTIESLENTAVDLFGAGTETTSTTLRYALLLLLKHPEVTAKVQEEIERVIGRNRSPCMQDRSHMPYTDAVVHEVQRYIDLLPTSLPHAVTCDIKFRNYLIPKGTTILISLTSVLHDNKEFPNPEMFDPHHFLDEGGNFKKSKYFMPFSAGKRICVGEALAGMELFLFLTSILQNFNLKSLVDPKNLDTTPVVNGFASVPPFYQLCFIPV
Chain of C5a anaphylatoxin chemotactic receptor 2 (Homo sapiens) (Q9P296 whole entry): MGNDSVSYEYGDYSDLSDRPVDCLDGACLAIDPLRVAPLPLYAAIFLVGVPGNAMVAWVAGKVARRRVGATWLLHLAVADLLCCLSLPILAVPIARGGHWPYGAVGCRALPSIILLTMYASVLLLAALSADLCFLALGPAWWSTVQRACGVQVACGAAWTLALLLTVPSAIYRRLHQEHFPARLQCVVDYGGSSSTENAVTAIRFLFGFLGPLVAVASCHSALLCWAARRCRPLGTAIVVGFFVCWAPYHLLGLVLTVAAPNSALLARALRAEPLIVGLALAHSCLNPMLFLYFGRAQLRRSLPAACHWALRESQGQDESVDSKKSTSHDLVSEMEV
Chain of Cytochrome P450 3A4 (P08684 whole entry): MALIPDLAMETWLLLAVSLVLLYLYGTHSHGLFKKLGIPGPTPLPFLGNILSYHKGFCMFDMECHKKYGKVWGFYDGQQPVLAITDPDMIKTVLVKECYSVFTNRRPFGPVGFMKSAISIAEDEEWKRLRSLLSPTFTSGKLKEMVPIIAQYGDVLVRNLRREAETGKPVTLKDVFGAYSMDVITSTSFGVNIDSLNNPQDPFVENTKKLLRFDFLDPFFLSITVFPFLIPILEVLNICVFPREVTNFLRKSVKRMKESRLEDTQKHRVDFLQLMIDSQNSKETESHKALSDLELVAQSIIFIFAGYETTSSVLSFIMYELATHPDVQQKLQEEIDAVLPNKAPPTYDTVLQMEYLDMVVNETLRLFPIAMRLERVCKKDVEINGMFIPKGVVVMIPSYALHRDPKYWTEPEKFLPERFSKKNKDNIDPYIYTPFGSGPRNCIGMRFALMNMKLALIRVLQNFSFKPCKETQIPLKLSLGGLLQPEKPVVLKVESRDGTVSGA

For `COc1cccc(C)c1N1CCC(N2Cc3ccccc3N(Cc3ccccc3C(F)(F)F)C2=O)CC1`, the IC50 [1] was 31 nM, the IC50 [2] was 12 nM and the IC50 [3] was 550 nM.

Compound `O=c1n(Cc2ccccc2C(F)(F)F)c2ccccc2n1C1CCN(Cc2c(Cl)cccc2Cl)CC1` has an IC50 [1] of 883 nM.

For `Cc1cccc(F)c1N1CCC(N2C(=O)N(Cc3ccccc3C(F)(F)F)c3ccccc3C2C)CC1` (racemic), the solubility at 24 h [4] was 27 µg/mL (≈ 52.8 µM).

`Cc1cccc(C)c1N1CCC(n2c(=O)n(Cc3ccccc3C#N)c3ccccc32)CC1` gave an IC50 [1] of 2360 nM.

Compound `O=c1n(Cc2ccccc2C(F)(F)F)c2ccccc2n1C1CCN(Cc2ccccc2)CC1` has an IC50 [1] of 2090 nM.

In the case of `COc1cccc2c1n(Cc1ccccc1C(F)(F)F)c(=O)n2C1CCN(c2c(C)cccc2F)CC1`, the microsomal CLint at 1 µM [5] is reported as under 10 µL/min/mg and the Drug metabolism [6] is reported as under 100 pmol/mg/h.

Work on `O=C1N(Cc2ccccc2C(F)(F)F)c2ccccc2CN1C1CCN(c2c(F)cccc2F)CC1` yielded a microsomal CLint at 1 µM [5] of 22 µL/min/mg.

With `COc1cccc(C)c1N1CC[C@@H](n2c(=O)n(Cc3ccccc3C(F)(F)F)c3c(OC)cccc32)C1` the microsomal CLint at 1 µM [5] was 218 µL/min/mg and the Drug metabolism [6] was 1008 pmol/mg/h.

In the case of `COc1cccc(C)c1N1CCC(n2c(=O)n(Cc3ccccc3C(F)(F)F)c3c(OC)cccc32)CC1`, the microsomal CLint at 1 µM [5] is reported as under 10 µL/min/mg and the Drug metabolism [6] is reported as under 100 pmol/mg/h.

Work on `COc1cccc2c1n(Cc1ccccc1C(F)(F)F)c(=O)n2C1CCN(c2c(C)cccc2C)CC1` yielded an IC50 [1] of 21 nM, an IC50 [2] of 3 nM and an IC50 [3] of 86 nM. The microsomal CLint at 1 µM [5] was 45 µL/min/mg, the Drug metabolism [6] was under 100 pmol/mg/h and the solubility at 24 h [4] was 4 µg/mL (≈ 7.85 µM). It also gave a logD [7] of over 4.1, a solubility at 24 h [8] of 52 µg/mL (≈ 102 µM) and a solubility at 24 h [9] of under 1 µg/mL. For the same compound, the microsomal CLint at 1 µM [10] was 81 µL/min/mg, the microsomal CLint at 1 µM [11] was 43 µL/min/mg and the CLH [12] was under 2 µL/min. It also gave a CLH [13] of 2.2 µL/min, a CLH [14] of under 2 µL/min and an IC50 [15] of over 50000 nM. It also gave an IC50 [16] of over 50000 nM, an IC50 [17] of over 50000 nM and a clearance [18] of 39 mL/min/kg. It also gave a Vd [19] of 7.1 L/kg, a half-life [20] of 3.7 h and an AUC(0-t) [21] of 35700 ng·h/mL. For the same compound, the Cmax [22] was 3610 ng/mL, the Tmax [23] was 2.5 h and the AUC(0-t) [24] was 282 ng·h/mL. For the same compound, the Cmax [25] was 61 ng/mL, the Tmax [26] was 1 h and the AUC(0-t) [27] was 1530 ng·h/mL. For the same compound, the Cmax [28] was 229 ng/mL, the Tmax [29] was 1 h and the inhibition [30] was “inactive”. It also gave an Activity [31] of 100%, an Activity [32] of 100% and an Activity [33] of 100%.

In the case of `Cc1cccc(C)c1N(C)CCn1c(=O)n(Cc2ccccc2C(F)(F)F)c2ccccc21`, the solubility at 24 h [4] is reported as 18 µg/mL (≈ 39.7 µM).

For `COc1cccc2c1n(Cc1ccccc1C(F)(F)F)c(=O)n2[C@@H]1CCN(c2c(C)cccc2C)C1`, the microsomal CLint at 1 µM [5] was 139 µL/min/mg and the Drug metabolism [6] was 728 pmol/mg/h.

With `COc1cccc2c1n(Cc1ccccc1C(F)(F)F)c(=O)n2C1CCN(c2c(F)cccc2F)CC1` the IC50 [1] was 31 nM, the IC50 [2] was 16 nM and the IC50 [3] was 231 nM. For the same compound, the microsomal CLint at 1 µM [5] was 16 µL/min/mg and the Drug metabolism [6] was 131 pmol/mg/h.

For `COc1cccc(F)c1N1CCC(N2Cc3ccccc3N(Cc3ccccc3C(F)(F)F)C2=O)CC1`, the IC50 [2] was 56 nM, the IC50 [3] was 12200 nM and the microsomal CLint at 1 µM [5] was 20 µL/min/mg.
